Patent US20060079512A1, “Dibenzodiazepinone analogues, processes for their production and their use as pharmaceuticals” (Ecopia BioSciences, Inc., priority 2003, published 2006)
Where two headings read alike, the source gives them in different places.

Columns and labels:
[1] = tested on: HT-29, SF-268, PC-3, MDA-MB-231; test: Average GI50 over the four cell lines, method (b); format: cell-based; conditions: for GI50: values > 30 not considered
Description: (§1) Row H was filled wih medium only (150 μL, negative control-medium).

[2] = tested on: HT-29 (colorectal carcinoma); test: In vitro cytotoxic activity (GI50), method (b), propidium iodide; format: cell-based; conditions: Homo sapiens, 96 hrs
Description: as §1

[3] = tested on: MDA-MB-231 (mammary gland adenocarcinoma); test: as above; format: cell-based; conditions: Homo sapiens, 96 hrs
Description: as §1

[4] = tested on: PC-3 (prostate adenocarcinoma); test: as above; format: cell-based; conditions: 96 hrs
Description: as §1

SF268 (CNS) = test: as above; format: cell-based; conditions: Homo sapiens, SF-268, 96 hrs
Description: as §1

[5] = Pharmacokinetic profile, plasma concentrations by LC/MS/MS; format: in vivo, female Crl: CD1 mice; conditions: 30 mg/kg; for half-life: plasma; for Cmax / AUC: mice plasma; for Cmax: read-out: observed Cmax
Description: Compounds 1 and 2 were separately dissolved in ethanol (5%), Polysorbate 80 (15%), PEG 400 (5%) and dextrose (5%) at a final concentration of 6 mg/ml (for all parenteral administration routes). For oral administration, Compound 1 was solubilized in Cremophor® EU Ethanol (50%:50%) at a final concentration of 6 mg/ml. Prior to dosing, animals (female Crl: CD1 mice; 6 weeks of age, 22-24 g) were weighed, randomly selected and assigned to the different treatment groups. Compound 1 was administered by the intravenous (iv), subcutaneous (sc), intraperitoneal (ip), or oral (po) route to the assigned animals. Compound 2 was administered by the intravenous (iv), or intraperitoneal (ip) route to the assigned animals. The dosing volume of Compounds 1 and 2 was 5 mL per kg body weight. Animals were anesthetized with 5% isoflurane prior to bleeding. Blood was collected into microtainer tubes containing the anticoagulant K2EDTA by cardiac puncture from each of 4 animals per bleeding timepoint (2 min, 5 min, 15 min, 30 min, 1 h, 2 h, 4 h and 8 h). Following collection, the samples were centrifuged and the plasma obtained from each sample was recovered and stored frozen (at approximately −80° C.) pending analysis. At the 5 min and 30 min time points, the following organs were harvested from each animal: brain, lungs, skeletal muscle, fat tissue, kidneys, spleen, thymus and liver. Tissues were frozen (at approximately −80° C.) pending analysis. Samples were analysed by LC/MS/MS.
Plasma values of Compounds 1 and 2 falling below the limit of quantitation (LOQ) were set to zero. […] The following pharmacokinetic parameters were calculated: area under the plasma concentration versus time curve from time zero to the last measurable concentration time point (AUC0-t), area under the plasma concentration versus time curve extrapolated to infinity (AUCinf), maximum observed plasma concentration (Cmax), time of maximum plasma concentration (tmax), apparent first-order terminal elimination rate constant (kel), apparent first-order terminal elimination half-life will be calculated as 0.693/kel (t1/2). The systemic clearance (CL) of Compound 1 after intravenous administration was calculated using Dose/AUCinf. Pharmacokinetic parameters were calculated using Kinetica™ 4.1.1 (InnaPhase Corporation, Philadelphia, Pa.).

[6] = tested on: HT-29, SF-268, PC-3, MDA-MB-231; test: Average GI50 over the four cell lines, method (a); format: cell-based; conditions: method (a); values > 30 not considered; read-out: Average (GI50 μM)
Description: Compounds were dissolved at 10 mM in DMSO. Dilution in vehicle to concentrations of 30, 10, 3, 1 and 0.3 μM were prepared immediately before assays. Depending on the cell line's growth characteristics, 4000-10000 cells were plated in two 96-wells pates (day 0) and incubated for 16 hours. The following day, propidium iodide was added to one of the two plates and fluorescence measured (Tz). Test compounds were added to the second plate, as well as vehicle control, and cells further incubated for 96 hours. Each compound was tested at each concentration and in triplicates. The equivalent cell number was determined after adding propidium iodide by measuring the signal by fluorescence (C for control).

[7] = female, Crl: CD1, mouse, iv, read-out: AUC

| half-life ([5]; female, Crl: CD1, mouse, iv, I.V., read-out: half life t1/2 α) [h] | half-life ([5]; female, Crl: CD1, mouse, iv, I.V., read-out: half life t1/2 β (converted)) [h] | AUC ([5]; ip) | drug levels after oral administration ([5]; oral) | orally bioavailable level ([5]; oral) | GI50 [6] [µM] | Structure (SMILES) | GI50 [1] [µM] | GI50 [2] [µM] | GI50 [3] [µM] | GI50 [4] [µM] | GI50 (SF268 (CNS)) [µM] | Cmax ([5]; female, Crl: CD1, mouse, ip) [µg/mL] | AUC [5, 7] [µM·h] | Cmax ([5]; female, Crl: CD1, mouse, iv) [µg/mL] | anticancer activity compared with Compound 1 ([1]; four cell lines) | half-life ([5]; female, Crl: CD1, mouse, ip, IP administration, read-out: half life (t1/2)) [h] | half-life ([5]; female, Crl: CD1, mouse, iv, IV administration, read-out: half life (t1/2)) [h] | AUC ([5]; female, Crl: CD1, mouse, ip, read-out: AUC) [µM·h] |
| --- | --- | --- | --- | --- | --- | --- | --- | --- | --- | --- | --- | --- | --- | --- | --- | --- | --- | --- |
| 0.0767 | 2.56 | 9.5 ˜M·h | moderate but sustained drug levels | 5-8% | 4.23 | CC(C)=CCC/C(C)=C/CC/C(C)=C/CN1C(=O)c2cccc(O)c2Nc2c(O)cc(O)cc21 [Compound 1, 10-farnesyl-4,6,8-trihydroxy-5,10-dihydrodibenzo[b,e][1,4]diazepin-11-one] | 4.45 | 9.33 | 3.18 | 3.76 | 1.55 | 2.25 | 40.4 | 130 |  |  |  |  |
|  |  |  |  |  |  | CC(C)=CCC/C(C)=C/CC/C(C)=C/CN1C(=O)c2cccc(O)c2N(C)c2c(O)cc(O)cc21 [Compound 2, 10-farnesyl-4,6,8-trihydroxy-5-methyl-5,10-dihydro-dibenzo[b,e][1,4]diazepin-11-one] | 0.36 | 0.65 | 0.24 | 0.45 | 0.12 | 5.8 | 92.1 | 105 | better anticancer activity than Compound 1 | > 40 | > 40 | 58.8 |
